According to patent publication US10329324B2 (viDA Therapeutics Inc., priority 2013, dated 2019):
Counter-ions that a name gives are not always drawn. Like-named read-outs stand apart in the source and are kept apart here.

Experiments:
human Granzyme B (hGzmB) = target: T1, human Granzyme B (hGzmB) (Homo sapiens, UniProt P10144); test: Human Granzyme B enzymatic inhibition assay (fluorogenic, kinetic); type: biochemical; conditions: activity codes, Table 7; read-out: IC50 Activity Range
T1 construct: purchased Froelich Lab, Northshore University Health Systems Research Institute, Evanston, Ill., USA
T1 sequence (P10144 21-247): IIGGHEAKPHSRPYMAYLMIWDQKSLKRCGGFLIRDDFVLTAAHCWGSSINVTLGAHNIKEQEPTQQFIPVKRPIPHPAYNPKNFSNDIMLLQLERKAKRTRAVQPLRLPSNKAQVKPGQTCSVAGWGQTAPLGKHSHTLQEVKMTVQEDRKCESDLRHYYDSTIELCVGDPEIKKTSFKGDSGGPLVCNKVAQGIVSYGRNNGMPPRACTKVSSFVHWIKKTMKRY
Procedure, shortened: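 Human Granzyme B preincubated with compound for 30 min total (5 min shaking, 20 min bench, then reaction temperature). Fluorogenic substrate added and read kinetically, 25 cycles at 1-min intervals. Percent inhibition at one or two concentrations or 8–12-point 3-fold dose response from 20 uM, replicates, with IC50 by non-linear regression.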

[1] = Kinetic solubility determination in PBS; type: physicochemical; conditions: PBS 1X pH 7.4, 2.0% DMSO, 24 hour incubation at ambient temperature; for solubility at 24 h: phosphate buffered saline (PBS 1×), 21 °C, pH 7.4, aqueous buffer, kinetic from dmso stock
Method: Kinetic solubility buffer (phosphate buffered saline (PBS, 1×) at pH 7.4) was prepared from PBS (10×) solution, (Fisher Scientific, Pittsburgh, Pa., USA, 10×), by adding PBS (50 mL, 10×) to approximately water (450 mL HPLC grade). The volume of the solution was then adjusted to 500 mL for a total dilution factor of 1:10 and a final PBS concentration of 1×. The pH of the final solution (PBS (1×)) was measured and found to be 7.4.
A DMSO stock solution (typically 10 mM or greater) was used for each compound to be tested. A final DMSO concentration of 2.0% and maximum theoretical compound concentration of typically 200 μM (or greater) was achieved by diluting an aliquot (6 μl) of each stock with kinetic solubility buffer (294 μl, PBS (1×) at pH 7.4) using a liquid handling system (Hamilton STARlet, Hamilton Robotics, Inc., Reno, Nev., USA) and incubated directly in a solubility filter plate (Millipore, Billerica, Mass., USA). Following 24 hour incubation at ambient temperature (20.5-21.7° C.), each sample was vacuum filtered. The filtrate was injected into the chemiluminescent nitrogen detector for quantification (Automated Discovery Workstation, Analiza, Inc., Cleveland, Ohio, USA). Each result was reported both in μM and μg/mL units. Three separate on-board performance indicating standards were assayed in triplicate with each test compound to ensure test results were within the acceptable range.
The equimolar nitrogen response of the detector was calibrated using standards which spanned the dynamic range of the instrument from 0.08 to 4500 μg/ml nitrogen. Each filtrate was quantified with respect to this calibration curve. Each calculated solubility value was corrected for background nitrogen present in the DMSO, and buffer used to prepare each sample. All reported values for samples containing adjacent nitrogen atoms in a ring structure were corrected for the expected non-equimolar response. Each calculated solubility result assumed that each sample was free of nitrogen containing impurities and was stable under the assay conditions. Analyses were performed at Analiza Inc. (Cleveland, Ohio, USA) by published methods (Bhattachar, S. N., et al, J. Pharma. BioMed Anal. 41:152-7 2006).

[2] = read-out: Solubility in aqueous PBS Buffer (1X, pH 7.4)
[3] = read-out: Solubility in aqueous PBS Buffer (1X, pH 7.4), ug/mL

SMILES	IC50 (human Granzyme B (hGzmB)) [nM]	solubility at 24 h [1, 2] [µM]	solubility at 24 h [1, 3] [µg/mL]	Solubility in aqueous PBS Buffer (1X, pH 7.4), uM [1] [uM]	Solubility in aqueous PBS Buffer (1X, pH 7.4), ug/mL [1] [ug/mL]
CC[C@H](C)[C@H](NC(=O)Cc1ccccc1)C(=O)NCC(=O)N1c2cc(NC(=O)CCC(=O)O)ccc2C[C@H]1C(=O)NCc1nn[nH]n1 [Example C22, 3-{[(2S)-1-{2-[(2S,3S)-3-Methyl-2-(2-Phenylacetamido)Pentanamido]Acetyl}-2-[(2H-1,2,3,4-Tetrazol-5-Ylmethyl)Carbamoyl]-2,3-Dihydro-1H-Indol-6-Yl]Carbamoyl}Propanoic Acid]	< 100	> 750	> 486		
CC[C@H](C)[C@H](NC(=O)C1CCCCC1C(=O)O)C(=O)NCC(=O)N1c2ccccc2C[C@H]1C(=O)NCc1nn[nH]n1 (single isomer, unassigned) [Example A20-1]	< 100	535	358		
CC[C@H](C)[C@H](NC(=O)C1CCCCC1C(=O)O)C(=O)NCC(=O)N1c2ccccc2C[C@H]1C(=O)NCc1nn[nH]n1 (single isomer, unassigned) [Example A23-1]	< 100			>750	>426
CC[C@H](C)[C@H](NC(=O)CC(C)CC(=O)O)C(=O)NCC(=O)N1c2ccccc2C[C@H]1C(=O)NCc1nn[nH]n1 (single isomer, unassigned) [Example A17-2]	100 to 1000			>750	>407
CC[C@H](C)[C@H](NC(=O)C(C)CC(=O)O)C(=O)NCC(=O)N1c2ccccc2C[C@H]1C(=O)NCc1nn[nH]n1 (single isomer, unassigned) [Example A30-1]	< 100	> 750	> 396		
CC[C@H](C)[C@H](NC(=O)Cc1cccnc1)C(=O)NCC(=O)N1c2ccccc2C[C@H]1C(=O)NCc1nn[nH]n1 [Example A3, (2S)-1-{2-[(2S,3S)-3-Methyl-2-[2-(Pyridin-3-Yl)Acetamido]Pentanamido]Acetyl}-N-(2H-1,2,3,4-Tetrazol-5-Ylmethyl)-2,3-Dihydro-1H-Indole-2-Carboxamide]	100 to 1000	139	74		
CC[C@H](C)[C@H](NC(=O)Cc1ccc(CC(=O)O)cc1)C(=O)NCC(=O)N1c2ccccc2C[C@H]1C(=O)NCc1nn[nH]n1 [Example A34, 2-[4-({[(1S,2S)-2-Methyl-1-({2-Oxo-2-[(2S)-2-[(2H-1,2,3,4-Tetrazol-5-Ylmethyl)Carbamoyl]-2,3-Dihydro-1H-Indol-1-Yl]Ethyl}Carbamoyl)Butyl]Carbamoyl}Methyl)Phenyl]Acetic Acid]	< 100	> 750	> 443		
CC[C@H](C)[C@H](NC(=O)Cc1ccccc1)C(=O)NCC(=O)N1c2cc(N)ccc2C[C@H]1C(=O)NCc1nn[nH]n1 [Example C20, (2S)-6-Amino-1-{2-[(2S,3S)-3-Methyl-2-(2-Phenylacetamido)Pentanamido]Acetyl}-N-(2H-1,2,3,4-Tetrazol-5-Ylmethyl)-2,3-Dihydro-1H-Indole-2-Carboxamide]	100 to 1000	596	348		
CC[C@H](C)[C@H](NC(=O)Cc1ccc(N)cc1)C(=O)NCC(=O)N1c2ccccc2C[C@H]1C(=O)NCc1nn[nH]n1 [Example A8, (2S)-1-{2-[(2S,3S)-2-[2-(4-Aminophenyl)Acetamido]-3-Methylpentanamido]Acetyl}-N-(2H-1,2,3,4-Tetrazol-5-Ylmethyl)-2,3-Dihydro-1H-Indole-2-Carboxamide Hydrochloride]	100 to 1000	> 150	> 88		
CC[C@H](C)[C@H](NC(=O)Cc1ccccc1)C(=O)N[C@H](C)C(=O)N1c2ccccc2C[C@H]1C(=O)NCc1nn[nH]n1 [Example C12, (2S)-1-[(2R)-2-[(2S,3S)-3-Methyl-2-(2-Phenylacetamido)Pentanamido]Propanoyl]-N-(2H-1,2,3,4-Tetrazol-5-Ylmethyl)-2,3-Dihydro-1H-Indole-2-Carboxamide]	> 10000	112	61		
CC[C@H](C)[C@H](NC(=O)C1CC1C(=O)O)C(=O)NCC(=O)N1c2ccccc2C[C@H]1C(=O)NCc1nn[nH]n1 (single isomer, unassigned) [Example A26-1]	< 100	> 750	> 395		
CC[C@H](C)[C@H](NC(=O)[C@H](O)[C@@H](O)C(=O)O)C(=O)NCC(=O)N1c2ccccc2C[C@H]1C(=O)NCc1nn[nH]n1 [Example A32, (2R,3R)-2,3-Dihydroxy-3-{[(1S,2S)-2-Methyl-1-({2-Oxo-2-[(2S)-2-[(2H-1,2,3,4-Tetrazol-5-Ylmethyl)Carbamoyl]-2,3-Dihydro-1H-Indol-1-Yl]Ethyl}Carbamoyl)Butyl]Carbamoyl}Propanoic Acid]	< 100	> 750	> 410		
CC[C@H](C)[C@H](NC(=O)Cc1ccccc1)C(=O)NCC(=O)N1c2ccccc2C[C@H]1C(=O)NCc1nn[nH]n1 [Example A1, (2S)-1-{2-[(2S,3S)-3-Methyl-2-(2-Phenylacetamido)Pentanamido]Acetyl}-N-(2H-1,2,3,4-Tetrazol-5-Ylmethyl)-2,3-Dihydro-1H-Indole-2-Carboxamide]	100 to 1000	144	77		
CC[C@H](C)[C@H](NC(=O)CC(C)CC(=O)O)C(=O)NCC(=O)N1c2ccccc2C[C@H]1C(=O)NCc1nn[nH]n1 (single isomer, unassigned) [Example A17-1]	100 to 1000	> 750	> 407		
CC[C@H](C)[C@H](NC(=O)C1CCCC1C(=O)O)C(=O)NCC(=O)N1c2ccccc2C[C@H]1C(=O)NCc1nn[nH]n1 (single isomer, unassigned) [Example A22-1]	< 100	> 750	> 416		
CC[C@H](C)[C@H](NC(=O)CCN)C(=O)NCC(=O)N1c2ccccc2C[C@H]1C(=O)NCc1nn[nH]n1 [Example A6, (2S)-1-{2-[(2S,3S)-2-(3-Aminopropanamido)-3-Methylpentanamido]Acetyl}-N-(2H-1,2,3,4-Tetrazol-5-Ylmethyl)-2,3-Dihydro-1H-Indole-2-Carboxamide]	1000 to 10000	> 150	> 78		
CC[C@H](C)[C@H](NC(C)=O)C(=O)NCC(=O)N1c2ccccc2C[C@H]1C(=O)NCc1nn[nH]n1 [Example A15, (2S)-1-{2-[(2S,3S)-2-Acetamido-3-Methylpentanamido]Acetyl}-N-(2H-1,2,3,4-Tetrazol-5-Ylmethyl)-2,3-Dihydro-1H-Indole-2-Carboxamide]	100 to 1000	565	258		
CC[C@H](C)[C@H](NC(=O)Cc1ccccn1)C(=O)NCC(=O)N1c2ccccc2C[C@H]1C(=O)NCc1nn[nH]n1 [Example A4, (2S)-1-{2-[(2S,3S)-3-Methyl-2-[2-(Pyridin-2-Yl)Acetamido]Pentanamido]Acetyl}-N-(2H-1,2,3,4-Tetrazol-5-Ylmethyl)-2,3-Dihydro-1H-Indole-2-Carboxamide]	100 to 1000	> 150	> 80		
